Data on seven compounds can be found in patent publication US6387417B1, “Bactericide against vancomycin resistant enterococcus” (priority 2000, dated 2002).

Molecules are shown by their SMILES. Read-outs that look alike come from different tables or passages of the source.

The test system of series [1] is Enterococcus faecalis KIH-C233. Nature of the series: MIC of antibiotics for the strain used. It counts as cell-based. To be noted: E. faecalis KIH-C233, collected from a patient.
The subject of series [2] is Enterococcus faecium KIH-234. Nature of the series: MIC of antibiotics for the strain used. In kind it is cell-based. To be noted: KIH234, E. faecium KIH-234, collected from a patient.
Series [3] has as its system Enterococcus gallinarum KIH-241. Nature of the series: MIC of antibiotics for the strain used. It counts as cell-based.
Series [4] concerns Enterococcus faecium KIH-237. Nature of the series: MIC of antibiotics for the strain used. It counts as cell-based. To be noted: KIH237, E. faecium KIH-237, collected from an imported chicken.
The conditions of series [5]: expected maximum; cited from earlier work.
The nature of series [6]: Solubility of hinokitiol in liquid carrier. It counts as physicochemical.
[7] abbreviates: Enterococcus faecalis, KIHC233, read-out: MIC.
[8] abbreviates: Enterococcus gallinarum, E. gallinarum KIH-241, collected from a chicken grown in Japan, read-out: MIC.

For the compound `CC1(C)S[C@@H]2[C@H](NC(=O)[C@H](N)c3ccccc3)C(=O)N2[C@H]1C(=O)O` [ABPC, aminobenzylpenicillin], the MIC in series [1] (setting [7]) was 1 µg/mL; in series [2], 16 µg/mL; in series [3] (setting [8]) it was 4 µg/mL; in series [4], 4 µg/mL.
Consider `CO[C@@]1(NC(=O)CSCC#N)C(=O)N2C(C(=O)O)=C(CSc3nnnn3C)CS[C@@H]21` [CMZ, cefmetazole], for which the minimal inhibitory concentration (MIC) in series [1] (setting [7]), in series [2], in series [3] (setting [8]) and in series [4] was over 32 µg/mL in each case.
Turning to `CC[C@H]1OC(=O)[C@H](C)[C@@H](O[C@H]2C[C@@](C)(OC)[C@@H](O)[C@H](C)O2)[C@H](C)[C@@H](O[C@@H]2O[C@H](C)C[C@H](N(C)C)[C@H]2O)[C@](C)(O)C[C@@H](C)C(=O)[C@H](C)[C@@H](O)[C@]1(C)O` [EM, erythromycin], the minimal inhibitory concentration (MIC) in series [1] (setting [7]) was over 32 µg/mL; in series [2], over 32 µg/mL; in series [3] (setting [8]), over 1 µg/mL; in series [4], over 32 µg/mL.
Take `C[C@@H](O)[C@H]1C(=O)N2C(C(=O)O)=C(SCCN=CN)C[C@H]12` [IPM, imipenem]: the MIC turned out to be 1 µg/mL in series [1] and 1 µg/mL in series [3] (E. gallinarum KIH-241, collected from a chicken grown in Japan).
Take `CC1(C)S[C@@H]2[C@H](NC(=O)Cc3ccccc3)C(=O)N2[C@H]1C(=O)O` [PCG, benzylpenicillin]: the MIC was determined as 4 µg/mL in series [1] (setting [7]), 16 µg/mL in series [2], 1 µg/mL in series [3] (setting [8]) and 16 µg/mL in series [4].
For the compound `CN[C@H](CC(C)C)C(=O)N[C@H]1C(=O)N[C@@H](CC(N)=O)C(=O)N[C@H]2C(=O)N[C@H]3C(=O)N[C@H](C(=O)N[C@H](C(=O)O)c4cc(O)cc(O)c4-c4cc3ccc4O)[C@H](O)c3ccc(c(Cl)c3)Oc3cc2cc(c3O[C@@H]2O[C@H](CO)[C@@H](O)[C@H](O)[C@H]2O[C@H]2C[C@](C)(N)[C@H](O)[C@H](C)O2)Oc2ccc(cc2Cl)[C@H]1O` [VCM, vancomycin], the MIC in series [1] (setting [7]) came to 2 µg/mL; in series [2], 0.5 µg/mL; in series [3] (Enterococcus gallinarum, GALLINARUM), 8 µg/mL; in series [4], 500 µg/mL. For the same compound, in series [5], the “concentration of vancomycin in blood at maximum” value is reported as “no more than 6 μg/ml”.
In the case of `CC(C)c1cccc(=O)c(O)c1` [hinokitiol, Hinokitiol], the “hinokitiol content achievable in the composition” value in series [6] (alcohol as liquid carrier, without aloe extract and the like extract) was “up to 5 % by mass”. In addition, the “hinokitiol concentration obtainable in aqueous solution” value is given as “up to 10 % by mass” in series [6] (water with surface active agent (glycerin fatty acid ester) and/or botanical emulsifier (quillaia saponin)); “about 1 % by mass” in series [6] (water, combined with the aloe extract and like extracts).

Usually MIC stands for the lowest concentration that inhibits growth of the organism.
